The text below walks through data of article PMC8953086, “Repurposing Avasimibe to Inhibit Bacterial Glycosyltransferases” (Pathogens, 2022).

The target of assay [1] is SseK1 (Salmonella enterica, UniProt A0A0H3NK84). In words: biochemical.
For assay [2], the target named is NleB (Citrobacter rodentium, UniProt A0A482PDI9). The assay is described as follows: biochemical.
Chain of NleB (A0A482PDI9 whole entry, looked up): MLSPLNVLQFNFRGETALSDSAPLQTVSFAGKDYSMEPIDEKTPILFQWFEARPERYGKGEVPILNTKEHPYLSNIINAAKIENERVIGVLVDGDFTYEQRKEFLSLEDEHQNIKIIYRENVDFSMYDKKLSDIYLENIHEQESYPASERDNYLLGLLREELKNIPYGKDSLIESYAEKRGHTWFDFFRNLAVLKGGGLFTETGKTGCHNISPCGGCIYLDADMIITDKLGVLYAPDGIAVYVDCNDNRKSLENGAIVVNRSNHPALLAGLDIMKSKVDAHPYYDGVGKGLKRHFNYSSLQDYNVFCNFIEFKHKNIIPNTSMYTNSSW

Chain of SseK1 (A0A0H3NK84 whole entry, looked up): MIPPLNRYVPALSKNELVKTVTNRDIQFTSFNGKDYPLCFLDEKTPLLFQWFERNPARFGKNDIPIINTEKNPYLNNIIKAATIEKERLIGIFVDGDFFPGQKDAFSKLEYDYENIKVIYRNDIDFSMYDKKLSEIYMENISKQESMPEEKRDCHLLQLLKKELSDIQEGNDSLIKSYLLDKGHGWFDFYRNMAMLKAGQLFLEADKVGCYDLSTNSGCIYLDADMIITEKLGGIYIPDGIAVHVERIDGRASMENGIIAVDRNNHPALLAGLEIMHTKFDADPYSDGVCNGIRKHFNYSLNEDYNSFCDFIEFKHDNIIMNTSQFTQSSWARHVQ

As for `CC(C)c1cc(C(C)C)c(CC(=O)NS(=O)(=O)Oc2c(C(C)C)cccc2C(C)C)c(C(C)C)c1` [avasimibe], the half-inhibitory concentration (IC50) in assay [1] and in assay [2] was around 10 µM throughout.
